Measurements taken from US20240384268A1, “Oligonucleotides” (Hudson Institute of Medical Research, priority 2021, published 2024).
In the oligonucleotide strings, read from the 5' end, every base follows the letter of its sugar. An asterisk marks phosphorothioate; unmarked linkages are phosphodiester. Other units and linkages are bracketed, terminal groups are in braces. A string of capitals states the bases alone. d = 2'-deoxy (DNA)

Target: T1, TLR3 (Homo sapiens, UniProt O15455)
T1 sequence (O15455 24-904): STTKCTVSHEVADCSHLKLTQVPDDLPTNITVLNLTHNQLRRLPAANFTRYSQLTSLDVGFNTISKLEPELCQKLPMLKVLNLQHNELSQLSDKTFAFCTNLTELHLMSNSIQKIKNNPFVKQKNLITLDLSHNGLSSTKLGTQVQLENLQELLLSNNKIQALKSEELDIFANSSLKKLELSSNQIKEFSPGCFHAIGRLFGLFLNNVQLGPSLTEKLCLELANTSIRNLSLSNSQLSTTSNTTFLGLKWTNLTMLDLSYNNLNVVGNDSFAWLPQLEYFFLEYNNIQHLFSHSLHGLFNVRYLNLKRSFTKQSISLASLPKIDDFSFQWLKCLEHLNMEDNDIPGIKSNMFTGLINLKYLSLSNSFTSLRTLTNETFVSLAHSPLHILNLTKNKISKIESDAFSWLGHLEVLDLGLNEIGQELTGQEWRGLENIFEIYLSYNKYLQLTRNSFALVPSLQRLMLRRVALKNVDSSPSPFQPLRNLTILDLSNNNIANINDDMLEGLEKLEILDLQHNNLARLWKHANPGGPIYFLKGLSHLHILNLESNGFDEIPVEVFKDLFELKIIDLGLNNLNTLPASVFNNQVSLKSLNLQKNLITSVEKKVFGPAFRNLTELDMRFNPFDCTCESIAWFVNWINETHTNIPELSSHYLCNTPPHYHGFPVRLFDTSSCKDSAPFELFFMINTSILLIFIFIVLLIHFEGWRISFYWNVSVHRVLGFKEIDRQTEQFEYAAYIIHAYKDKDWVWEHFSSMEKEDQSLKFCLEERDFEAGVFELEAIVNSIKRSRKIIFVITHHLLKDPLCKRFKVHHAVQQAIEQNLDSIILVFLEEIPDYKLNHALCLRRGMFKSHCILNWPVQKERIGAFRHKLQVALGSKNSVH
Test: HEK-TLR3 NF-κB-luciferase reporter, poly(I:C) stimulation
Assay type: cell-based
Design: host or cells: HEK-Blue hTLR3 (HEK293)
Conditions: 500 nM ASOs/ODNs, poly(I:C) 1 μg/ml

| Substance | inhibition of polyI:C sensing by TLR3 at 500 nM (in words) |
| --- | --- |
| T*G*C* T*T*G* A*C*A* T*C*C* T*G*G* A*G*G* G*G*T* T*G*T (TGCTTGACATCCTGGAGGGGTTGT; DNA, all phosphorothioate, methylation of C not given here) [IRS957, reference compound] | blocked polyL:C sensing |
| T*G*C* T*T*G* C*A*A* G*C*T* T*G*C* A*A*G* C*A (TGCTTGCAAGCTTGCAAGCA; DNA, all phosphorothioate, methylation of C not given here) [IRS661, reference compound] | blocked polyL:C sensing |
| T*T*C* A*A*A* T*T*C* A*A*A* T*T*C* A*A*A* T*T*C* A*A*A (dT*dT*dC*dA*dA*dA*dT*dT*dC*dA*dA*dA*dT*dT*dC*dA*dA*dA*dT*dT*dC*dA*dA*dA) [C151, reference compound] | only partially reduced polyL:C-dependent TLR3 activation |

Same assay, conditions: 2 μM 3-mer DNA PS, 500 ng/ml polyI:C

| Substance | inhibition of TLR3 sensing by 3-mer DNA PS oligos |
| --- | --- |
| dT*dA*dC [TAC] | strongest DNA 3-mer |

Same assay, conditions: 3-mers DNA PS 45 min, then 500 ng/ml polyI:C overnight, NF-κB-luciferase normalised to polyI:C only (Ligand 1.000, NT 0.000)

| Substance | TLR3 2uM |
| --- | --- |
| dA*dA*dT [AAT] | 0.877 |
| dA*dC*dT [ACT] | 0.818 |
| dA*dG*dT [AGT] | 0.865 |
| dA*dT*dA [ATA] | 0.827 |
| dA*dT*dC [ATC] | 0.834 |
| dA*dT*dG [ATG] | 0.849 |
| dA*dT*dT [ATT] | 1.012 |
| dC*dA*dT [CAT] | 0.828 |
| dC*dC*dT [CCT] | 0.914 |
| dC*dG*dT [CGT] | 0.755 |
| dC*dT*dA [CTA] | 0.864 |
| dC*dT*dC [CTC] | 0.911 |
| dC*dT*dG [CTG] | 0.843 |
| dC*dT*dT [CTT] | 0.901 |
| dG*dA*dT [GAT] | 0.864 |
| dG*dC*dT [GCT] | 0.998 |
| dG*dG*dT [GGT] | 0.959 |
| dG*dT*dA [GTA] | 0.818 |
| dG*dT*dC [GTC] | 0.914 |

| Substance | TLR3 2uM |
| --- | --- |
| dG*dT*dG [GTG] | 0.929 |
| dG*dT*dT [GTT] | 1.009 |
| dT*dA*dA [TAA] | 0.968 |
| dT*dA*dC [TAC] | 0.704 |
| dT*dA*dG [TAG] | 0.769 |
| dT*dA*dT [TAT] | 0.877 |
| dT*dC*dA [TCA] | 0.792 |
| dT*dC*dC [TCC] | 0.868 |
| dT*dC*dG [TCG] | 0.931 |
| dT*dC*dT [TCT] | 1.230 |
| dT*dG*dA [TGA] | 0.743 |
| dT*dG*dC [TGC] | 0.795 |
| dT*dG*dG [TGG] | 0.773 |
| dT*dG*dT [TGT] | 0.884 |
| dT*dT*dA [TTA] | 0.855 |
| dT*dT*dC [TTC] | 0.928 |
| dT*dT*dG [TTG] | 0.990 |
| dT*dT*dT [TTT] | 1.139 |

Target: T2, human TLR7 (Homo sapiens, UniProt Q9NYK1)
T2 construct: HA; host or cells: 293XL-hTLR7-HA (HEK293)
T2 sequence (Q9NYK1 27-1049): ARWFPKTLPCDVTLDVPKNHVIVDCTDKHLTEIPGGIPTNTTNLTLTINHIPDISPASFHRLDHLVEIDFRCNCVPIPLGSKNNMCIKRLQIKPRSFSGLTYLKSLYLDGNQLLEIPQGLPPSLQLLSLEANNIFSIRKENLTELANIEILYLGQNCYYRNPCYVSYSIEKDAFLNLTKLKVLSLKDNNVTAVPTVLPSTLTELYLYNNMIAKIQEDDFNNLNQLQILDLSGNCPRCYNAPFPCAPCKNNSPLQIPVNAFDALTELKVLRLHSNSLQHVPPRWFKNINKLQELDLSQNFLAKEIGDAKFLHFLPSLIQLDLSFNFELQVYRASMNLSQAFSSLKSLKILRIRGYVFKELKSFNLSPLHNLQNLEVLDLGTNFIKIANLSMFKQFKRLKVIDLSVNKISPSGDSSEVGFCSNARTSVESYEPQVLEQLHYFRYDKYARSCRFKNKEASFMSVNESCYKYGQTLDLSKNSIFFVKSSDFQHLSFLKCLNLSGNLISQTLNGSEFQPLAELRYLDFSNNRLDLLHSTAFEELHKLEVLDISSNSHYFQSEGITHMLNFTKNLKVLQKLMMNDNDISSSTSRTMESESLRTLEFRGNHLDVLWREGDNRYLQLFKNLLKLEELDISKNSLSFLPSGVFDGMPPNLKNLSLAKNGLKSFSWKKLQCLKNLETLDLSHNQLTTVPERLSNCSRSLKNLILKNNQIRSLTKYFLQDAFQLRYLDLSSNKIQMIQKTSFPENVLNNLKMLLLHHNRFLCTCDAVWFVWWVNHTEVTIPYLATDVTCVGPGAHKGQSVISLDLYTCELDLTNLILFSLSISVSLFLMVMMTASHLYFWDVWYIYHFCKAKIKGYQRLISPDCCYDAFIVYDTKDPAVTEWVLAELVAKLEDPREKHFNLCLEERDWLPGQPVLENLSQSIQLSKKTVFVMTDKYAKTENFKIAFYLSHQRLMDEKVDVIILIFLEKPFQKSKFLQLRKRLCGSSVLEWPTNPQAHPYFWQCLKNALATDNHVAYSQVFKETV
Test: HEK-TLR7 NF-κB-luciferase reporter, R848 stimulation
Assay type: cell-based
Conditions: HEK-TLR7; 2 μM 3-mer DNA on a PS backbone; R848
Experimental: In such examples, inhibition of TLR7 activity can be identified by observation of an overall decreased TLR7 response of the cell population, or a lower proportion of cells having TLR7-positive activity as compared to positive control condition in which cells are treated with TLR7 agonist in the absence of the oligonucleotide (or in the presence of an appropriate control inhibitory agent). In one example, 293XLhTLR7 (referred to as HEK-TLR7) cells are transfected with pNF-κB-Luc4 reporter, incubated with an oligonucleotide, and then stimulated with R848. TLR7 activity can be determined by a luciferase assay, which measures activated NF-κB by luminescence. TLR7 activity can also be analysed by measuring cytokine levels, for example by ELISA. […] TLR7 activity may then be assessed by the gene or protein expression of TLR7-responsive genes, such as Tnfα and Oas3.
For cGAS stimulations, cells were treated for indicated duration with ASOs, prior to transfection with ISD70 (human cells) or ISD45 (mouse cells) (the ASOs were not washed off prior to ISD transfection unless otherwise indicated). The cGAS ligands ISD45 (Stetson and Medzhitov, 2006) and ISD70 (also known as VACV-70 (Unterholzner et al., 2010)) (Table 1) were resuspended as follows: 5 1d of sense and 5 μl of antisense strands at 10 μg/μl were added to 90 μl PBS under sterile conditions, heated at 75° C. for 30 min, prior to letting cool down at room temperature and aliquoting (stock at 1 μg/1 l). The ISDs were transfected at a concentration of […] at a ratio of 1 μg:1 μl with Lipofectamine 2000 in Opti-MEM (Thermo Fisher Scientific). HEK-TLR3, HEK-TLR7 and […] were treated with indicated concentration of ASOs for 20-50 min, prior to stimulation with poly(I:C) (Invivogen), R848 (Invivogen), Motolimod (MedChemExpress) and the Class B CpG oligonucleotides ODN 2006 (synthesised by IDT and resuspended in RNase-free TE buffer [Table 1]), respectively. The TLR2/1 agonist PAM3CSK4 (Invivogen), the TLR4 agonist lipopolysaccharide (Invivogen), the Class B CpG oligonucleotides ODN 1826 (synthesised by IDT and resuspended in RNase-free TE buffer), the mouse Sting agonist DMXAA (Cayman) and the human STING agonist (compound #3 from (Raanjulu et al., 2018), referred to as GSK herein—kind gift from Cancer Therapeutics CRC, Australia) were used at indicated concentrations. Aspirin (Sigma—A2093) was resuspended in pure medium to 10 mM, filter sterilised and added to the cells at 2 mM final. All ASOs were synthesised by Integrated DNA Technologies (IDT), and resuspended in RNase-free TE buffer, pH 8.0 (Thermo Fisher Scientific). Cell viability was assessed by adding 1× fresh resazurin solution to the wells (10λ solution made up with 7 mg resazurin [Sigma—R7017] dissolved in 3.5 ml PBS, sterile filtered at […]) for 4 h, prior to reading at with a Fluostar OPTIMA (BMG LABTECH) plate-reader (fluorescence: Excitation 535 nm, Emission 590); wells with medium only and 1× resazurin were used as blanks.
Following transfection, the cells were collected from the 6-wells and aliquoted into 96-wells, just before ASO and overnight TLR stimulation (as above described). Similarly, the LL171 cells expressing and ISRE-Luc reporter were treated overnight.

| Substance | inhibition of TLR7 by 3-mer DNA PS oligos |
| --- | --- |
| dT*dC*dT [TCT] | two most potent DNA 3-mers inhibiting TLR7 |
| dT*dT*dT [TTT] | two most potent DNA 3-mers inhibiting TLR7 |
